According to paper PMC7909954 (eLife, 2021):
“And” between values parts separate entries of the source, which are not always exact repeats. Equal entries are not always repeated. Where two headings read alike, the source gives them in different places.

Experiments:
SERT = molecular target: T1, SERT (Homo sapiens, UniProt P31645); test: Radioligand binding counter-screen (NIMH PDSP)
T1 construct: NIMH Psychoactive Drug Screening Program

mDOR [1] = molecular target: T2, mDOR (Mus musculus, UniProt P32300); details: binding assays
MOR = MOR (Homo sapiens, UniProt P35372)
rKOR [2] = molecular target: T3, rKOR (Rattus norvegicus, UniProt P34975); details: BRET, rodent receptors
KOR [3] = molecular target: T4, KOR (Homo sapiens, UniProt P41145)
KOR [4] = molecular target: T4, KOR; test: cell-based
KOR [5] = molecular target: T4, KOR; test: cell-based; remark: listed apart in the source
DOR = DOR (Homo sapiens, UniProt P41143); test: cell-based
mMOR [6] = molecular target: T5, mMOR (Mus musculus, UniProt P42866); test: cell-based
rKOR [7] = molecular target: T3, rKOR; test: cell-based
mMOR [8] = molecular target: T5, mMOR; test: biochemical
mKOR [9] = molecular target: T6, mKOR (Mus musculus, UniProt P33534); test: biochemical
mMOR [10] = molecular target: T5, mMOR; test: biochemical; remark: listed apart in the source
mKOR [11] = molecular target: T6, mKOR; test: biochemical; remark: listed apart in the source
mDOR [12] = molecular target: T2, mDOR; test: biochemical; details: read-out: Emax mDOR [35S]GTPγS
[13] = transduction coefficient log(T/KA)

T4 sequence (P41145 whole entry): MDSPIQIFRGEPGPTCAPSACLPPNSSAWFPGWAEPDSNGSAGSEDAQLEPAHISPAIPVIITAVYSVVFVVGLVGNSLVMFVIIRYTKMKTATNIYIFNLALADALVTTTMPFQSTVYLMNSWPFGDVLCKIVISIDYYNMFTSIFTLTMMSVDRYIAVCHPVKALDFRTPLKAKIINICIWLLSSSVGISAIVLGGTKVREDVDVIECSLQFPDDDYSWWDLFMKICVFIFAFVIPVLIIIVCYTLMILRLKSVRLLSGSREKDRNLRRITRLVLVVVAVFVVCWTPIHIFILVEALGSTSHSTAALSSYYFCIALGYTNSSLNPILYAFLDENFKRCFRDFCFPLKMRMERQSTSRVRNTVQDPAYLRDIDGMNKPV
T6 sequence (P33534 whole entry): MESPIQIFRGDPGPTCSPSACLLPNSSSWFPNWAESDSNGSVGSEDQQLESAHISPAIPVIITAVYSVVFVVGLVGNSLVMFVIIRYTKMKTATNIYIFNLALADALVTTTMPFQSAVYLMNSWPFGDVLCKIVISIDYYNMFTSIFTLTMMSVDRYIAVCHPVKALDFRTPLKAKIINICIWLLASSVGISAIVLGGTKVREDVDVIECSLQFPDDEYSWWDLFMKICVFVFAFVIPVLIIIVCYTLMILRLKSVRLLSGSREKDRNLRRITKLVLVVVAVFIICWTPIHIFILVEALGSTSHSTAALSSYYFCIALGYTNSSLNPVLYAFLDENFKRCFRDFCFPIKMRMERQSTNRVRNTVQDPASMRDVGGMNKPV
T3 sequence (P34975 whole entry): as the sequence (P33534 whole entry) above, with D11E, S17A, S51P, A308V counted along it
T5 sequence (P42866 whole entry): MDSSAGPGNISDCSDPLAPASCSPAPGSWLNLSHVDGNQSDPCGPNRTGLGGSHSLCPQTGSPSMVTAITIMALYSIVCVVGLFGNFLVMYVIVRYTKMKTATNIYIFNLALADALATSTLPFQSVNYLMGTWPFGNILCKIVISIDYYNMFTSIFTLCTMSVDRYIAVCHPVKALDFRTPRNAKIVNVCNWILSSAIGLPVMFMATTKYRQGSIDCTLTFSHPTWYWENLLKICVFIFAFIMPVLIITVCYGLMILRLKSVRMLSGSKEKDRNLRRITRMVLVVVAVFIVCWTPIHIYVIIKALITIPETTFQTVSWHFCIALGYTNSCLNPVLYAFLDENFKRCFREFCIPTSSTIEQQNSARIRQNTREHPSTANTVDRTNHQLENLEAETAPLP
Chain of DOR (P41143 whole entry): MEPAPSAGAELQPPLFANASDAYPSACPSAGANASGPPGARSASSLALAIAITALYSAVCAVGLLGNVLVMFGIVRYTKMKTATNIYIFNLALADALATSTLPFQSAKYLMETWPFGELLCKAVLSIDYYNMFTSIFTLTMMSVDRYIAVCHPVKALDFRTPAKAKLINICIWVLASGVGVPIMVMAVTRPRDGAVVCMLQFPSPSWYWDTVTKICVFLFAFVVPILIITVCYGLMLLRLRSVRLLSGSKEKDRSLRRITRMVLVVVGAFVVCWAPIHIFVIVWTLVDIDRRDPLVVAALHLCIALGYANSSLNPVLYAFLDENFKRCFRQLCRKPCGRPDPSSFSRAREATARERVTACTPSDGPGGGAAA
T2 sequence (P32300 whole entry): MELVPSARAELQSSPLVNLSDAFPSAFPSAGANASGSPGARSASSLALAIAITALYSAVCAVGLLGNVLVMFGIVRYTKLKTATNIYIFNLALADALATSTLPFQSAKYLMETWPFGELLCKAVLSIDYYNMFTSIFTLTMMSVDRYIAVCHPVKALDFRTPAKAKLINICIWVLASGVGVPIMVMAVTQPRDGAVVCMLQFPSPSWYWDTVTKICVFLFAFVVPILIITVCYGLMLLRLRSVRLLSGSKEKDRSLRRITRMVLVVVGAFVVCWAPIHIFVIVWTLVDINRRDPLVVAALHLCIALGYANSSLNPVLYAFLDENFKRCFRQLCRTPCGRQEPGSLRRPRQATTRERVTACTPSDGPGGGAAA
T1 sequence (P31645 whole entry, species assumed): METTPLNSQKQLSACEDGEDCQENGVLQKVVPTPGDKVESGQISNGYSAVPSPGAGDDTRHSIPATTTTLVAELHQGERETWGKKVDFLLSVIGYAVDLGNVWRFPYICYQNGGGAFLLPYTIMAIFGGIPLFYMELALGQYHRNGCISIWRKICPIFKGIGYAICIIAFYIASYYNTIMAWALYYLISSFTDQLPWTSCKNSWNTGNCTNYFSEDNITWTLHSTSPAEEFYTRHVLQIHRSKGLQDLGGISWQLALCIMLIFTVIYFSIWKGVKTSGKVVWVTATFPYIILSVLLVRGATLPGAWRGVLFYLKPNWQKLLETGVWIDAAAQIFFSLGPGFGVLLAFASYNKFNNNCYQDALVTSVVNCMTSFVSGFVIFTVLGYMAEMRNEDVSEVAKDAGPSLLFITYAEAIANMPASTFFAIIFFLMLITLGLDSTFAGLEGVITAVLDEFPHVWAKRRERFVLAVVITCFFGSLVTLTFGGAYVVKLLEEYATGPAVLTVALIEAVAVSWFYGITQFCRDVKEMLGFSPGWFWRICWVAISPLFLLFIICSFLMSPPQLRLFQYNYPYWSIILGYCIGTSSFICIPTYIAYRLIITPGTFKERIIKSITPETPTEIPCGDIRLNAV
Chain of MOR (P35372 whole entry): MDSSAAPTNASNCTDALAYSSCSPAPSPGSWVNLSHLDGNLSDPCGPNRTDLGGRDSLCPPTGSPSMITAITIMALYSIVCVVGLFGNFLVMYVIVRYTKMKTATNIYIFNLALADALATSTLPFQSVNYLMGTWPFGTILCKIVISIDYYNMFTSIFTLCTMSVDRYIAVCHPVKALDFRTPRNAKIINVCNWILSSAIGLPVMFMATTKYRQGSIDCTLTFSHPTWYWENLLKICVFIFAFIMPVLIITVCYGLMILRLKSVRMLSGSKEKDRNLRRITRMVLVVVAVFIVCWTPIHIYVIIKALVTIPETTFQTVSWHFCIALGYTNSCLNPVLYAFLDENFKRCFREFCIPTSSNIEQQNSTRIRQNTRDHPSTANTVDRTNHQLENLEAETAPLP

## NCc1cccc(C(=O)N[C@@H]2CCC3C4Cc5ccc(O)c6c5[C@@]3(CCN4CC3CC3)C2O6)c1 (stereo partly drawn) [MP1207, 3-(Aminomethyl)-N-((7R,12bS)−3-(cyclopropylmethyl)−9-hydroxy-2,3,4,4a,5,6,7,7a-octahydro-1H-4,12-methanobenzofuro[3,2-e]isoquinolin-7-yl)benzamide]
SERT
  Ki: 356 nM
SERT; from counter-screen Ki
  selectivity for MOR and KOR over the nearest non-opioid target: 900 fold
mDOR [1]
  selectivity for MOR and KOR over DOR: more than 40 fold
MOR
  arrestin recruitment at hMOR (in words): completely abolished
rKOR [2]
  arrestin recruitment at rKOR (in words): No recruitment of βarrestin-2
KOR [3]
  ΔΔlog RA (cAMP-Tango) hKOR: 0.903±0.026
KOR [3]; >1 G protein bias, <1 arrestin bias, vs U50,488h
  Bias factor (cAMP-Tango) hKOR: 8
KOR [3]; [13]
  Log RA cAMP hKOR: 9.902±0.004
  LogRA Tango hKOR: 7.97±0.024
KOR [3]; vs U50,488h
  ΔlogRA Tango hKOR: -0.176±0.025
  ΔlogRA cAMP hKOR: 0.73±0.006
KOR [4]; EC50 cAMP inhibition hKOR
  EC50: 0.11 nM
KOR [4]; HEK-293T, read-out: Emax% cAMP inhibition hKOR
  Emax: 90 ± 1.7%
KOR [4]; pEC50 cAMP inhibition hKOR, ± SEM
  EC50: 0.105 nM
KOR [5]; EC50 arrestin recruitment (Tango) hKOR
  EC50: 3.97 nM
KOR [5]; HTLA, read-out: Emax% arrestin recruitment (Tango) hKOR
  Emax: 37 ± 2%
DOR; EC50 arrestin recruitment hDOR, Tango
  EC50: 64.1 nM
DOR; HTLA, read-out: Emax% arrestin recruitment hDOR
  Emax: 34 ± 3.7%
mMOR [6]; EC50 G protein activation (BRET) mMOR
  EC50: 3.61 nM
mMOR [6]; HEK-293T, read-out: Emax% G protein activation (BRET) mMOR
  Emax: 42 ± 2.6%
rKOR [7]
  EC50: 1.13 nM
rKOR [7]; HEK-293T, read-out: Emax% G protein activation (BRET) rKOR
  Emax: 32 ± 2.3%
mMOR [8]
  Ki: 0.23 ± 0.02 nM
mKOR [9]
  Ki: 0.39 ± 0.05 nM
mMOR [10]; EC50 mMOR [35S]GTPγS, ± SEM
  EC50: 1.3 nM and 1.29 nM
mMOR [10]; read-out: Emax mMOR [35S]GTPγS
  Emax: 41 ± 1%
mKOR [11]; EC50 mKOR [35S]GTPγS, ± SEM
  EC50: 1.5 nM and 1.52 nM
mKOR [11]; read-out: Emax mKOR [35S]GTPγS
  Emax: 39.3 ± 1.3%
mDOR [12]
  Emax: 10 to 15%
